# Earlier results as cited in patent publication US7041675B2, “Heterocyclic compounds and their use as PARP inhibitors” (Abbott GmbH & Co. KG, priority 2000, dated 2006).
# Tested on: model of circulatory shock
# Conditions: S. Cuzzocrea et al., Br. J. Pharmacol. 1997
smiles,measurement,value
NC(=O)c1cccc(N)c1 [3-aminobenzamide],protective effects in a model of circulatory shock,protective effects
